Measured values as given in publication PMC5809120 (Journal of the American Chemical Society, 2018).

T1: PtNTT2(66-575) (Phaeodactylum tricornutum, UniProt B7FWL8)
T1 sequence (B7FWL8 66-575): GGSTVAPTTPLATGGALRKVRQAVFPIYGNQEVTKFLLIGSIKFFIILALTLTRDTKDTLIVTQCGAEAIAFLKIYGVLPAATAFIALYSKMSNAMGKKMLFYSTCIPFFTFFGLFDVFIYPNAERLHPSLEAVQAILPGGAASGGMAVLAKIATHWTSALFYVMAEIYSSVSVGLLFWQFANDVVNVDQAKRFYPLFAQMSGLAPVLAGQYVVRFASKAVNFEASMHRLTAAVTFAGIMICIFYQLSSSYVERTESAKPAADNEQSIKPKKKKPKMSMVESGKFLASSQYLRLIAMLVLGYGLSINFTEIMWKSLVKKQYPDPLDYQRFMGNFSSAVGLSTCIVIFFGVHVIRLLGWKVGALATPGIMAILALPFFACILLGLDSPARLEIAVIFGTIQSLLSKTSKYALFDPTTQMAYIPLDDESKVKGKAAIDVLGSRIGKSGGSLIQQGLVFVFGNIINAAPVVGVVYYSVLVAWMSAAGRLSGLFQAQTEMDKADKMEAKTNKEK

B1: PtNTT2(66-575) (Phaeodactylum tricornutum CCAP 1055/1) (protein)
chain: T1 sequence (B7FWL8 66-575)

molecular target: T1, PtNTT2(66-575); assay: inhibition of [α-32P]ATP uptake into E. coli YZ2 cells; assay type: cell-based; settings: read-out: % inhibition at 500 μM

Molecule | inhibition at 500 µM [%]
Nc1nc2c(ncn2COCCOP(=O)(O)OP(=O)(O)OP(=O)(O)O)c(=O)[nH]1 [ACVTP] | 68.6 ± 5.5
Cc1cn([C@H]2C[C@H](N=[N+]=[N-])[C@@H](COP(=O)(O)OP(=O)(O)OP(=O)(O)O)O2)c(=O)[nH]c1=O [AZTTP] | 56.9 ± 12
Nc1ccn([C@H]2C[C@H](O)[C@@H](COP(=O)(O)OP(=O)(O)OP(=O)(O)O)O2)c(=O)n1 [dCTP] | 76.3 ± 2.8
Nc1nc(=O)n([C@H]2C[C@H](O)[C@@H](COP(=O)(O)OP(=O)(O)OP(=O)(O)O)O2)cc1I [5-IdCTP] | 73.6 ± 1.8
Nc1nc(=O)n([C@@H]2O[C@H](COP(=O)(O)OP(=O)(O)OP(=O)(O)O)[C@@H](O)[C@H]2O)cc1I [5-ICTP] | 96.6 ± 1.3
Nc1nc2c(ncn2[C@H]2C[C@H](O)[C@@H](COP(=O)(O)OP(=O)(O)OP(=O)(O)O)O2)c(=O)[nH]1 [dGTP] | 55.3 ± 3.6
Nc1nc(=O)n([C@@H]2O[C@H](COP(=O)(O)OP(=O)(O)OP(=O)(O)O)[C@@H](O)[C@H]2O)cc1CO [5-hmCTP] | 76.3 ± 2.9
Nc1nc2c(ncn2[C@@H]2O[C@H](COP(=O)(O)OP(=O)(O)OP(=O)(O)O)[C@@H](O)[C@H]2O)c(=O)[nH]1 [GTP] | 60.4 ± 1.4
Nc1nc2c(ncn2[C@@H]2O[C@H](COP(=O)(O)OP(=O)(O)OP(=O)(O)O)[C@@H](O)[C@@H]2O)c(=O)[nH]1 [Ara-GTP] | 47.8 ± 7.9
Nc1ccn([C@@H]2O[C@H](COP(=O)(O)OP(=O)(O)OP(=O)(O)O)[C@@H](O)[C@H]2O)c(=O)n1 [CTP] | 70.5 ± 4.9
Nc1ccn([C@@H]2O[C@H](COP(=O)(O)OP(=O)(O)OP(=O)(O)O)[C@@H](O)[C@@H]2O)c(=O)n1 [Ara-CTP] | 81.3 ± 5.2

substrate: Nc1ncnc2c1ncn2[C@@H]1O[C@H](COP(=O)(O)OP(=O)(O)OP(=O)(O)O)[C@@H](O)[C@H]1O; assay: radiolabelled uptake into E. coli YZ2 cells, filter assay; assay type: cell-based, Phaeodactylum tricornutum; settings: whole-cell uptake; labelled compound ([α-32P]ATP)

Molecule | Km [µM]
B1 | 186.0 ± 21.1
